Measurements published in publication PMC9144902, “Metal(II) Complexes of the Fluoroquinolone Fleroxacin: Synthesis, Characterization and Biological Profile” (Pharmaceutics, 2022).

Legend:
CT DNA = experiment: Study of the DNA-interaction by cyclic voltammetry; assay type: binding, calf; conditions: for Epa(f), anodic potential / Epc(f), cathodic potential / Epa(b), anodic potential / Epc(b), cathodic potential: M(II)/M(I), 1:2 DMSO/buffer; for Epa(f), anodic potential / Epc(f), cathodic potential: absence of CT DNA; for Epa(b), anodic potential / Epc(b), cathodic potential: presence of CT DNA; for Kr/Kox, ratio of equilibrium DNA-binding constants (reduced/oxidized form): eq. S6
Experimental: Cyclic voltammetry was used to study the interaction of the complexes with CT DNA. An intercalative interaction will induce a positive shift for the electrochemical potential(s) of metal oxidation/reduction, whereas, in the case of electrostatic interaction, a negative shift in the potential(s) may occur. The cyclic voltammograms of the complexes in a 1:2 DMSO:buffer solution (0.33 mM) were recorded in the absence and presence of the CT DNA solution (Figure S13). The predominant electrochemical feature for all complexes is a positive shift in the potential in the presence of CT DNA (ΔEpc/a = (–30)–(+127) mV). Consequently, the intercalative nature of the interaction of the complexes with DNA can be inferred from the presented data.
In order to evaluate further the redox behavior of the complexes, the corresponding equilibrium constants were calculated by determining the ratio Kr/Kox in accordance to Equation (S6), where Kox and Kr are the DNA-binding constants for the oxidized and reduced form, respectively, of the metal ions. For all complexes, the Kr/Kox ratio is close to or above 1 (Table 7), showing the selective binding of DNA to the […] form of the complexes. […]
S3.3 Study of the DNA –interaction by cyclic vol ta mmetry
Cyclic voltammetr y can be also used in order to calculate the corresponding equilibrium constant for the redox process. The ratio of the DNA–binding constants for the reduced (K r) and oxidized forms (Kox) of t he complex es (Kr/Kox) w as calculat ed according t o eq. S6:
Δ = = 0.059 × lo gEE E K oxoo o (eq. S6) […]
where Eo and Eo are the formal potentials of M(II)/M(I) redox couple in the fully bound and […]
free complexes, respectivel y. Kox and Kr are the binding constants for the binding of the oxidized and reduced species to DNA, respectivel y [S8] . […]

[1] = target: T1, human serum albumin (HSA) (Homo sapiens, UniProt P02768); experiment: Albumin binding by tryptophan fluorescence emission quenching; conditions: for K(HSA), HSA-binding constant / kq(HSA), HSA-quenching constant: HSA 3 μM; for K(HSA), HSA-binding constant: buffer pH 7.0, Scatchard equation; for kq(HSA), HSA-quenching constant: buffer pH 7.0, λexc 295 nm, Stern–Volmer, τ0 = 10^–8 s; for HSA fluorescence, % of the initial fluorescence intensity (I/Io): λem,max = 351 nm, final value of titration (Figure S10)
T1 construct: purchased
Summary of the method: (§1)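 Compound binding to serum albumin monitored by quenching of albumin tryptophan fluorescence emission. Quenching constants (kq) derived from Stern–Volmer equation; binding constants (K) from Scatchard equation.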

[2] = target: T2, bovine serum albumin (BSA) (Bos taurus, UniProt P02769); experiment: as above; conditions: for K(BSA), BSA-binding constant / kq(BSA), BSA-quenching constant: BSA 3 μM; for K(BSA), BSA-binding constant: buffer pH 7.0, Scatchard equation; for kq(BSA), BSA-quenching constant: buffer pH 7.0, λexc 295 nm, Stern–Volmer, τ0 = 10^–8 s; for BSA fluorescence, % of the initial fluorescence intensity (I/Io): λem,max = 342 nm, final value of titration (Figure S11)
T2 construct: purchased
Summary of the method: as §1

T2 sequence (P02769 25-607): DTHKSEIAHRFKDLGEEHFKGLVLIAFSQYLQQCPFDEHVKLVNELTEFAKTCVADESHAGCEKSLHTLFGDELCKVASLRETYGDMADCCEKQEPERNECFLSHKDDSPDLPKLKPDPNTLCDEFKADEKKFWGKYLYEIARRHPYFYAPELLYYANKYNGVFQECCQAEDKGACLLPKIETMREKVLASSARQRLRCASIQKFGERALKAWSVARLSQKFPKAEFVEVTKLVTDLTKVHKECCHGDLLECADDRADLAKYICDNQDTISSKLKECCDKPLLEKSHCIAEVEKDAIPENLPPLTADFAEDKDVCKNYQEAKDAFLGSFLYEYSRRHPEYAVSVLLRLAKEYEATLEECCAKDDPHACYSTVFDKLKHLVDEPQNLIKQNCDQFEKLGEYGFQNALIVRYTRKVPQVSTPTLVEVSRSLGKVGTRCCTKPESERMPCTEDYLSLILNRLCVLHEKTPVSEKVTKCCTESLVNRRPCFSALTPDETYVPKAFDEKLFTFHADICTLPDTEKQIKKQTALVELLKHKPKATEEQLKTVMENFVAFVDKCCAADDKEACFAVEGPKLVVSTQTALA
T1 sequence (P02768 25-609): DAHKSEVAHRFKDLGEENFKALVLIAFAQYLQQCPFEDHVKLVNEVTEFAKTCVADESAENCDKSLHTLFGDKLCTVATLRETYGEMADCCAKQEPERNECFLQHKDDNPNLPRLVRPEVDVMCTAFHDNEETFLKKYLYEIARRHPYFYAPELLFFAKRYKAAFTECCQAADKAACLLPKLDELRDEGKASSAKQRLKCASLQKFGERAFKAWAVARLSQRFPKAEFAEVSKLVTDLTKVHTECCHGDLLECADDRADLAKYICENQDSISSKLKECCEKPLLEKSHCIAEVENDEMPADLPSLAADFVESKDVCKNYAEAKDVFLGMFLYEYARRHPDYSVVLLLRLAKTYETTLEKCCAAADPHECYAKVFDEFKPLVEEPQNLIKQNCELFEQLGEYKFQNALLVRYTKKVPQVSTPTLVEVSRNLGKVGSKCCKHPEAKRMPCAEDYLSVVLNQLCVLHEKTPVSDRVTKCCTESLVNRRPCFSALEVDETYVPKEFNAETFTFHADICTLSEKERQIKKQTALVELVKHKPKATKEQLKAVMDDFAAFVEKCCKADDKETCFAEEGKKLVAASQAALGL

| SMILES | Epa(f), anodic potential (CT DNA) | Epc(f), cathodic potential (CT DNA) | Epa(b), anodic potential (CT DNA) | Epc(b), cathodic potential (CT DNA) | Kr/Kox, ratio of equilibrium DNA-binding constants (reduced/oxidized form) (CT DNA) | K(HSA), HSA-binding constant [1] | kq(HSA), HSA-quenching constant [1] | HSA fluorescence, % of the initial fluorescence intensity (I/Io) [1] | K(BSA), BSA-binding constant [2] | kq(BSA), BSA-quenching constant [2] | BSA fluorescence, % of the initial fluorescence intensity (I/Io) [2] |
| --- | --- | --- | --- | --- | --- | --- | --- | --- | --- | --- | --- |
| CN1CCN(c2c(F)cc3c(=O)c(C(=O)[O-])cn(CCF)c3c2F)CC1.[Cl-].[Cu+2].c1cnc2c(c1)ccc1cccnc12 [complex 8, [Cu(flrx)(phen)Cl]] | −483 mV | −725 mV | −406 mV | −720 mV | 2.00 | 3.45(±0.14) × 10^4 M^−1 | 4.08(±0.13) × 10^12 M^−1s^−1 | 56.5% | 5.03(±0.22) × 10^4 M^−1 | 1.04(±0.03) × 10^13 M^−1s^−1 | 34.4% |
| CN1CCN(c2c(F)cc3c(=O)c(C(=O)[O-])cn(CCF)c3c2F)CC1.CN1CCN(c2c(F)cc3c(=O)c(C(=O)[O-])cn(CCF)c3c2F)CC1.[Mn+2].c1cnc2c(c1)ccc1cccnc12 [complex 11, [Mn(flrx)2(phen)]] | −501 mV | −706 mV | −499 mV | −700 mV | 1.07 | 1.01(±0.04) × 10^5 M^−1 | 1.03(±0.01) × 10^13 M^−1s^−1 | 34.2% | 1.09(±0.03) × 10^5 M^−1 | 1.65(±0.04) × 10^13 M^−1s^−1 | 25.2% |
| CN1CCN(c2c(F)cc3c(=O)c(C(=O)[O-])cn(CCF)c3c2F)CC1.CN1CCN(c2c(F)cc3c(=O)c(C(=O)[O-])cn(CCF)c3c2F)CC1.[Co+2].c1ccc(-c2ccccn2)nc1 [complex 15, [Co(flrx)2(bipy)]] | −533 mV | −701 mV | −541 mV | −695 mV | 0.98 | 8.13(±0.25)×10^4 M^−1 | 1.56(±0.05) × 10^13 M^−1s^−1 | 26.1% | 2.84(±0.11) × 10^5 M^−1 | 5.12(±0.17) × 10^13 M^−1s^−1 | 9.2% |
| CN1CCN(c2c(F)cc3c(=O)c(C(=O)[O-])cn(CCF)c3c2F)CC1.[Cl-].[Cu+2].c1ccc(-c2ccccn2)nc1 [complex 6, [Cu(flrx)(bipy)Cl]] | −450 mV | −710 mV | −323 mV | −740 mV | 2.28 | 1.02(±0.03) × 10^5 M^−1 | 6.08(±0.06) × 10^12 M^−1s^−1 | 48.5% | 6.12(±0.33) × 10^4 M^−1 | 1.59(±0.07) × 10^13 M^−1s^−1 | 25.7% |
| CN1CCN(c2c(F)cc3c(=O)c(C(=O)[O-])cn(CCF)c3c2F)CC1.CN1CCN(c2c(F)cc3c(=O)c(C(=O)[O-])cn(CCF)c3c2F)CC1.CO.CO.[Ni+2] [complex 5, [Ni(flrx)2(MeOH)2]] | −495 mV | −706 mV | −501 mV | −701 mV | 0.99 | 5.76(±0.28) × 10^4 M^−1 | 1.09(±0.03) × 10^13 M^−1s^−1 | 34.1% | 1.75(±0.07) × 10^5 M^−1 | 2.37(±0.13) × 10^13 M^−1s^−1 | 19.2% |
| CN1CCN(c2c(F)cc3c(=O)c(C(=O)[O-])cn(CCF)c3c2F)CC1.CN1CCN(c2c(F)cc3c(=O)c(C(=O)[O-])cn(CCF)c3c2F)CC1.[Co+2].c1cnc2c(c1)ccc1cccnc12 [complex 17, [Co(flrx)2(phen)]] | −523 mV | −695 mV | −518 mV | −689 mV | 1.10 | 5.18(±0.32) × 10^4 M^−1 | 6.49(±0.21) × 10^12 M^−1s^−1 | 44.5% | 1.44(±0.03) × 10^5 M^−1 | 1.50(±0.03) × 10^13 M^−1s^−1 | 26.3% |
| CN1CCN(c2c(F)cc3c(=O)c(C(=O)[O-])cn(CCF)c3c2F)CC1.CN1CCN(c2c(F)cc3c(=O)c(C(=O)[O-])cn(CCF)c3c2F)CC1.[Mn+2].c1ccc(-c2ccccn2)nc1 [complex 9, [Mn(flrx)2(bipy)]] | −475 mV | −701 mV | −495 mV | −684 mV | 0.97 | 6.36(±0.31) × 10^4 M^−1 | 8.09(±0.17) × 10^12 M^−1s^−1 | 39.8% | 1.39(±0.05) × 10^5 M^−1 | 2.45(±0.09) × 10^13 M^−1s^−1 | 18.0% |
